Read-outs that look alike come from different tables or passages of the source. Residues, ends and D or L forms follow the SMILES beside them. *: point of attachment. βNA = c1ccc2cc(N*)ccc2c1
What was measured:
[1] = tested on: E. aerogenes Ea-294, Ea-298; test: MIC (microdilution) against E. aerogenes strains devoid of AcrAB / TolC; conditions: Klebsiella aerogenes
MRSA HEMSA 5 [2] = test: MIC reduction assay: influence on oxacillin susceptibility in MRSA; assay type: cell-based, S. aureus; conditions: MRSA HEMSA 5
Experimental: The lack of a direct antibacterial activity of arylideneimidazolone derivatives tested allowed analyzing their anti-resistance potency in combination with the β-lactam antibiotic, oxacillin. […] The potential of compounds to become antibiotic adjuvants was evaluated by comparing the drug effectiveness in the presence and absence of compounds tested, thereby, by determining activity gain parameter A (Table 5). […] Slightly lower adjuvant-like activity was determined for the imidazolone derivatives 7 and 10 (A = 8–16). The efficacy of the remaining compounds was slightly less marked, however, also significant. Although compounds tested improved noticeably the antibacterial activity of oxacillin against MRSA clinical isolate, none of them restored the activity of the antibiotic (MIC < 2 µg/mL) against this highly resistant strain.

[3] = tested on: AcrAB-TolC efflux pump in E. aerogenes Ea-289; test: Real-time efflux (RTE) assay with 1,2'-dNA; conditions: compound 100 µM; Ea-289 strain
S. aureus ATCC 25923 = test: Intrinsic antibacterial activity (MIC, microdilution) against reference S. aureus strain; assay type: cell-based; conditions: Staphylococcus aureus
Experimental: (§1) Initially, 12 arylideneimidazolone derivatives were evaluated in vitro for their intrinsic antibacterial effect against two strains of S. aureus: the reference strain S. aureus ATCC 25923 and extremely-drug resistant (XDR) MRSA HEMSA 5 clinical isolate. This step of the study was necessary for: (i) elucidation whether molecules tested are devoid of antistaphylococcal activity and thus cannot become antimicrobial agents by themselves; and (ii) determination of the concentrations of compounds suitable for the further assay on their antibiotic adjuvant potency. In addition, the antistaphylococcal efficacy of oxacillin, which was paired with compounds tested, in the following assays was also assessed (Table 3).

E. aerogenes CM-64 = test: MIC (microdilution) against E. aerogenes CM-64 overexpressing AcrAB-TolC; conditions: Klebsiella aerogenes
E. aerogenes Ea-289 = test: MIC (microdilution) against E. aerogenes Ea-289 overexpressing AcrAB-TolC, porin-deficient; conditions: for MIC: Klebsiella aerogenes; for increase of MIC for Ea-289 and CM-64 in comparison to Ea-298 and Ea-294: efflux overexpressing vs deficient strains
MRSA HEMSA 5 [4] = test: Intrinsic antibacterial activity (MIC, microdilution) against MRSA HEMSA 5; assay type: cell-based, S. aureus; conditions: for MIC: Staphylococcus aureus
Experimental: as §1

[5] = ATCC25923, S. aureus ATCC 25923, compound alone, MH II broth, read-out: MIC Value
[6] = MRSA HEMSA 5, compound alone, MH II broth, read-out: MIC Value
[7] = CM64, read-out: MIC (in brackets)
[8] = EA289, read-out: MIC (in brackets)

| Compound | MIC [1] [µM] | reduction of MIC of oxacillin (MRSA HEMSA 5 [2]) [fold] | MIC (S. aureus ATCC 25923; [5]) [µM] | MIC (E. aerogenes CM-64; CM64) [µM] | MIC (E. aerogenes Ea-289; EA289) [µM] | MIC (MRSA HEMSA 5 [4]; [6]) [µM] | melting point [°C] | also measured |
| --- | --- | --- | --- | --- | --- | --- | --- | --- |
| Cl.NC1=N/C(=C\c2cccc(Oc3ccccc3)c2)C(=O)N1CCCN1CCOCC1 [Compound 17, (Z)-5-(3-phenoxybenzylidene)-2-amino-3-(3-morpholinopropyl)-3H-imidazol-4(5H)-one hydrochloride] | 500 | 2 | 250 | > 2000 | > 2000 | 250 | 227 to 230 | Inhibitory efficiency (IE) of 1,2'-dNA efflux [3]: 61%; increase of MIC for Ea-289 and CM-64 in comparison to Ea-298 and Ea-294 (E. aerogenes Ea-289): ≥ 4 fold |
| COc1ccc(/C=C2\N=C(N)N(CCCN3CCN(C)CC3)C2=O)cc1.Cl (hydrate or solvate) [Compound 8, (Z)-5-(4-Methoxybenzylidene)-2-amino-3-(3-(4-methylpiperazin-1-yl)propyl)-3H-imidazol-4(5H)-one hydrochloride] | – | – | – | – | – | – | 262 | – |
| COc1ccc(/C=C2\N=C(N)N(CCCN3CCN(C)CC3)C2=O)cc1.Cl [Compound 8, (Z)-5-(4-Methoxybenzylidene)-2-amino-3-(3-(4-methylpiperazin-1-yl)propyl)-3H-imidazol-4(5H)-one hydrochloride] | – | 8 | > 2000 | – | – | > 2000 | – | – |
| CN1CCN(CCCN2C(=O)/C(=C/c3ccc(Cl)cc3)N=C2N)CC1.Cl [Compound 7, (Z)-5-(4-chlorobenzylidene)-2-amino-3-(3-(4-methylpiperazin-1-yl)propyl)-3H-imidazol-4(5H)-one hydrochloride] | – | 16 | 500 to 1000 | – | – | 1000 | – | – |
| Cl.NC1=N/C(=C\c2c3ccccc3cc3ccccc23)C(=O)N1CCCN1CCOCC1 [Compound 16, (Z)-2-Amino-5-(anthracen-10-ylmethylene)-3-(3-morpholinopropyl)-3H-imidazol-4(5H)-one hydrochloride] | 2000 | – | > 125 | > 2000 | > 2000 | > 125 | 244 to 246 | Inhibitory efficiency (IE) of 1,2'-dNA efflux [3]: 44% |
| NC(N)=NCCC[C@H](NC(=O)[C@@H](N)Cc1ccccc1)C(=O)Nc1ccc2ccccc2c1 [PaβN] (H-Phe-Arg-βNA) | 125 | – | – | 500 | 500 | – | – | – |
| Cc1onc(-c2ccccc2)c1C(=O)N[C@@H]1C(=O)N2[C@@H]1SC(C)(C)[C@@H]2C(=O)O [Oxacillin, reference compound] | – | – | 0.59 | – | – | 1210 | – | MIC (S. aureus ATCC 25923; ATCC25923, S. aureus ATCC 25923, read-out: MIC Value (in brackets)): 0.25 µg/mL; MIC (MRSA HEMSA 5 [4]; MRSA HEMSA 5, read-out: MIC Value (in brackets)): 512 µg/mL |
| CN1CCN(CCCN2C(=O)/C(=C/c3c4ccccc4cc4ccccc34)N=C2N)CC1.Cl [Compound 11, (Z)-2-Amino-5-(anthracen-10-ylmethylene)-3-(3-(4-methylpiperazin-1-yl)propyl)-3H-imidazol-4(5H)-one hydrochloride] | 500 | – | 500 | > 2000 | > 2000 | 500 | 246 to 248 | Inhibitory efficiency (IE) of 1,2'-dNA efflux [3]: 37%; increase of MIC for Ea-289 and CM-64 in comparison to Ea-298 and Ea-294 (E. aerogenes Ea-289): ≥ 4 fold |
| O=C(N[C@H](CO)[C@H](O)c1ccc([N+](=O)[O-])cc1)C(Cl)Cl [Chloramphenicol] | 200 | – | – | 1600 | 3200 | – | – | MIC ([1]; read-out: MIC (in brackets)): 64 µg/mL; MIC (E. aerogenes CM-64; [7]): 512 µg/mL; MIC (E. aerogenes Ea-289; [8]): 1020 µg/mL |
| (Z)-2-Amino-5-(biphen-4-ylmethylene)-3-(2-(4-methylpiperazin-1-yl)ethyl)-3H-imidazol-4(5H)-one hydrochloride [Compound 14] | – | 8 | – | – | – | – | – | MIC Value (MRSA HEMSA 5 [4]; MRSA HEMSA 5, compound alone, MH II broth): 0.25 mM |
| CN1CCN(C2=N/C(=C\c3ccc(Cl)cc3)C(=O)N2)CC1 [Compound 6, (Z)-5-(4-chlorobenzylidene)-2-(4-methylpiperazin-1-yl)-3H-imidazol-4(5H)-one] | – | 8 | – | – | – | – | – | MIC (S. aureus ATCC 25923; ATCC25923, read-out: MIC Value): 2000 µM; MIC (MRSA HEMSA 5 [4]; MRSA, read-out: MIC Value): 1000 µM |
| C[C@H]1c2cccc(O)c2C(=O)C2=C(O)[C@]3(O)C(=O)C(C(N)=O)=C(O)[C@@H](N(C)C)[C@@H]3[C@@H](O)[C@@H]21 [Doxycycline] | 5 | – | – | 72 | 18 | – | – | MIC ([1]; read-out: MIC (in brackets)): 2 µg/mL; MIC (E. aerogenes CM-64; [7]): 32 µg/mL; MIC (E. aerogenes Ea-289; [8]): 8 µg/mL |
| CN1CCN(CCCN2C(=O)/C(=C/c3ccc(Oc4ccccc4)cc3)N=C2N)CC1 [Compound 12, (Z)-5-(4-Phenoxybenzylidene)-2-amino-3-(3-(4-methylpiperazin-1-yl)propyl)-3H-imidazol-4(5H)-one] | 1000 | 8 | – | 2000 | 2000 | – | 220 to 230 | Inhibitory efficiency (IE) of 1,2'-dNA efflux [3]: 64%; MIC (S. aureus ATCC 25923; ATCC25923, read-out: MIC Value): 250 µM; MIC (MRSA HEMSA 5 [4]; MRSA, read-out: MIC Value): 250 to 500 µM |
| CC[C@H]1OC(=O)[C@H](C)[C@@H](O[C@H]2C[C@@](C)(OC)[C@@H](O)[C@H](C)O2)[C@H](C)[C@@H](O[C@@H]2O[C@H](C)C[C@H](N(C)C)[C@H]2O)[C@](C)(O)C[C@@H](C)C(=O)[C@H](C)[C@@H](O)[C@]1(C)O [Erythromycin] | 5 | – | – | 700 | 350 | – | – | MIC ([1]; read-out: MIC (in brackets)): 4 µg/mL; MIC (E. aerogenes CM-64; [7]): 512 µg/mL; MIC (E. aerogenes Ea-289; [8]): 256 µg/mL |
| CCn1cc(C(=O)O)c(=O)c2cc(F)c(N3CCNCC3)cc21 [Norfloxacin, norfloxacin] | 50 | – | – | 6 | 200 | – | – | MIC ([1]; read-out: MIC (in brackets)): 16 µg/mL; MIC (E. aerogenes CM-64; [7]): 2 µg/mL; MIC (E. aerogenes Ea-289; [8]): 64 µg/mL |
| CN1CCN(CCCN2C(=O)/C(=C/c3cc4ccccc4c4ccccc34)N=C2N)CC1.Cl [Compound 10, (Z)-2-Amino-3-(3-(4-methylpiperazin-1-yl)propyl)-5-(phenanthren-9-ylmethylene)-3H-imidazol-4(5H)-one hydrochloride] | 500 | – | > 125 | 1000 | 1000 | > 125 | 266 to 268 | Inhibitory efficiency (IE) of 1,2'-dNA efflux [3]: 60% |
| CN1CCN(CCCN2C(=O)/C(=C/c3cccc4ccccc34)N=C2N)CC1.Cl [Compound 15, (Z)-2-Amino-3-(3-(4-methylpiperazin-1-yl)propyl)-5-(naphthalen-1-ylmethylene)-3H-imidazol-4(5H)-one hydrochloride] | – | – | 1000 | – | – | 1000 to 2000 | 187 to 191 | – |
| CN1CCN(CCCN2C(=O)/C(=C/c3ccc(Cl)cc3)N=C2N)CC1.Cl (hydrate or solvate) [Compound 7, (Z)-5-(4-chlorobenzylidene)-2-amino-3-(3-(4-methylpiperazin-1-yl)propyl)-3H-imidazol-4(5H)-one hydrochloride] | – | – | – | – | – | – | 294 | – |

Reference: article PMC6384991, “5-Arylideneimidazolones with Amine at Position 3 as Potential Antibiotic Adjuvants against Multidrug Resistant Bacteria” (Molecules, 2019)
